Laboratory results reported in patent US20180346518A1, “LYSOBACTIN FOR USE IN THE TREATMENT OF BOVINE MASTITIS” (BAYER ANIMAL HEALTH GMBH, priority 2015, published 2018).
≈ marks a conversion by molar mass, not a printed value. Numbered stars: 1 amine (or outer) side, 2 acyl side, 3 side chain; on linkers, the order of the positions; unused ones are H or OH. Bridge positions count the residues as written; N and C are the ends. Square brackets hold non-standard residues; d marks the D form. Peptide text beside a SMILES is read from it. Phe(3R-OH) = O=C([C@@H](N[*:1])[C@H](O[*:3])c1ccccc1)[*:2]; Asn(3S-OH) = NC(=O)[C@@H](O)[C@H](N)C(=O)O; Leu(3R-OH) = CC(C)[C@@H](O)[C@H](N)C(=O)O; aThr = C[C@H](O)[C@H](N)C(=O)O

Key:
[1] = tested on: Coagulase-negative staphylococci; assay: microbroth dilution MIC (CLSI), MIC90; format: cell-based
Method: (§1) The in vitro antibacterial activity of lysobactin against common mastitis pathogens such as Staphylococcus aureus, Coagulase-negative staphylococci, Streptococcus uberis, Streptococcus dvsgalactiae, Streptococcus agalactiae, Trueperella pyogenes, Escherichia coli, or Klebsiella pneumoniae was assessed by microbroth dilution MIC methodology as described by the Clinical and Laboratory Standards Institute (CLSI) in order to obtain the Minimal Inhibitory Concentration (MIC), which is defined as the lowest concentration of a substance that prevents visible growth of a bacterium. The results expressed as MIC90 are summarized in the following table, where the MIC90 is defined as the concentration at which the growth of at least 90% of the strains of a given species is inhibited.

Escherichia coli = assay: microbroth dilution MIC (CLSI), MIC90; format: cell-based
Method: as §1

Klebsiella pneumoniae = assay: microbroth dilution MIC (CLSI), MIC90; format: cell-based
Method: as §1

Staphylococcus aureus [2] = assay: microbroth dilution MIC (CLSI), MIC90; format: cell-based
Method: as §1

Streptococcus agalactiae = assay: microbroth dilution MIC (CLSI), MIC90; format: cell-based
Method: as §1

[3] = tested on: Streptococcus dysgalactiae; assay: microbroth dilution MIC (CLSI), MIC90; format: cell-based
Method: as §1

Streptococcus uberis [4] = assay: microbroth dilution MIC (CLSI), MIC90; format: cell-based
Method: as §1

Trueperella pyogenes = assay: microbroth dilution MIC (CLSI), MIC90; format: cell-based
Method: as §1

S. uberis = assay: resistance development during serial passaging; format: cell-based, Streptococcus uberis; details: constant sub-MIC exposure, 33 days
Method: The appearance of MIC changes during constant exposure of bacteria to sub-MIC concentrations of lysobactin was assessed by serial passaging experiments. On the first day the MICs of S. aureus and S. uberis were assessed by microbroth dilution MIC methodology as described by the Clinical and Laboratory Standards Institute (CLSI). Each day for the following 33 consecutive days, bacteria from the well containing the highest concentrations allowing full growth were collected and used to inoculate new 96-well plates and to assess the MIC during constant exposure to lysobactin. The MIC obtained on each day was plotted over time. Rifampicin, which is known to result in quick changes of the MIC, was used as positive control.

Staphylococcus aureus [5] = assay: Staphylococcus aureus acute mouse mastitis model; format: in vivo, lactating CD-1 mice
Method: The efficacy of lysobactin (formulated in a hydrogel at pH 4.7) was tested in a Staphylococcus aureus acute mouse mastitis model established at the University of Sherbrooke, Canada (Broui-llette et al, Vet. Microbiol. (2004) 4:253-262), that is hereby incorporated by reference. Both the abdominal mammary glands (L4 and R4) of lactating CD-1 mice were intramammarily infected with 100 CFU (colony forming units) of S. aureus. The mice were treated intramammarily with lysobactin four hours after infection. Each treatment group contained at least 3 mice (6 quarters) 14 hours later (18 hours after inoculation) mice were sacrificed, mammary glands were harvested and the CFU content evaluated by plating 10-fold serial dilutions of mammary gland homogenates. The CFU content was expressed as log10 count. The detection limit was 200 CFU/g of gland. Glands with less than 200 CFU/g were regarded as cleared.

Streptococcus uberis [6] = assay: Streptococcus uberis challenge mouse mastitis model; format: in vivo, lactating mice; details: 100, 200, 400 or 800 μg/gland hydrogel, 18 h after infection; all glands, with one exception in the highest dosing group
Method: The efficacy of lysobactin (formulated in a hydrogel at pH 4.7) was tested in a Streptococcus uberis challenge mouse mastitis model. Twenty lactating mice were experimentally infected on the fourth pair of mammary glands with S. uberis around 12-15 days after birth of the offspring. Four hours after inoculation, groups of four mice were treated on the same glands with lysobactin at 100, 200, 400, or 800 μg/gland formulated as hydrogel. The fifth group was treated solely with the hydrogel vehicle as negative control. Eighteen hours after infection the animals were euthanized, the glands were removed, homogenized, and bacterial colony forming units (CFUs) were determined by established microbiological methods. Subsequently CFU/mL homogenate as well as CFU/g of gland were calculated. The detection limit was approximately 100 CFU/g of gland. Antimicrobial activity of lysobactin against Strep uberis was determined by comparison of the mean CFUs/gland of the different dosing groups and the negative control group.

Streptococcus uberis [7] = assay: dairy cow udder infection model with S. uberis; format: in vivo, lactating dairy cows
Method: Seventy-two healthy lactating dairy cows were experimentally infected with the mastitis pathogen Streptococcus uberis on two udder quarters per cow. […] Treatments were randomly assigned to 41 (clinical) or 37 (microbiological) udder quarters in total, either 50 mg lysobactin per quarter (in 15/13 quarters), or 150 mg lysobactin (in 15/14 quarters), or Ubrolexin® (in 11/10 quarters) as positive control. The diseased quarters were treated with these intramammary formulations two times with an interval of 24 hours in between. Udders were clinically examined and milk samples were taken before treatment and several times after that until three weeks after the second administration. Milk was inspected visually for deviation in its consistency and samples were evaluated for presence of the challenge organism to confirm the diagnosis mastitis. Diseased udder quarters were considered microbiologically cured when Streptococcus uberis found in milk samples shortly before treatment could not be isolated from any milk sample taken within the time period between the seventh and the twenty-first day after the second treatment. Clinical cure was achieved when the local symptoms of mastitis completely disappeared or were at the most of very slight nature.

[8] = 150 mg per quarter, Day 7 after second treatment

CC[C@H](C)[C@@H]1NC(=O)[C@@H](CCCNC(=N)N)NC(=O)[C@H](CC(C)C)NC(=O)[C@H]([C@H](O)C(C)C)NC(=O)[C@@H](NC(=O)[C@H](CC(C)C)NC(=O)[C@H](N)CC(C)C)[C@@H](c2ccccc2)OC(=O)[C@H](CO)NC(=O)[C@H]([C@H](O)C(N)=O)NC(=O)CNC(=O)[C@H]([C@H](C)O)NC1=O [lysobactin] (H-[dL]L[Phe(3R-OH)][Leu(3R-OH)]L[dR]I[aThr]G[Asn(3S-OH)]S; ester 3-C)
MIC90 [1]: 0.5 µg/mL (≈ 0.392 µM) | MIC90 (Escherichia coli): > 16 µg/mL | MIC90 (Klebsiella pneumoniae): > 16 µg/mL | MIC90 (Staphylococcus aureus [2]): 0.5 µg/mL (≈ 0.392 µM) | MIC90 (Streptococcus agalactiae): 0.25 µg/mL (≈ 0.196 µM) | MIC90 [3]: 0.25 µg/mL (≈ 0.196 µM) | MIC90 (Streptococcus uberis [4]): 0.125 µg/mL (≈ 0.0979 µM) | MIC90 (Trueperella pyogenes): 0.5 µg/mL (≈ 0.392 µM) | MIC change during serial passaging (S. uberis): remain constant | reduction of median CFU content of mammary glands (Staphylococcus aureus [5]; 50 μg intramammary, hydrogel pH 4.7, 4 h after infection, glands harvested 18 h after inoculation): ca. 4 log10 | clearance of infection from glands (Staphylococcus aureus [5]; 400 μg intramammary, hydrogel pH 4.7, cleared = less than 200 CFU/g of gland): eliminates the infection from all infected glands | bacterial counts in glands (Streptococcus uberis [6]): < 10^2 CFU/g | microbiological cure rate (Streptococcus uberis [7]; 50 mg per quarter, 2 treatments 24 h apart, Day 7 after second treatment): 84.6% | local clinical cure rate (Streptococcus uberis [7]; 50 mg per quarter, Day 7 after second treatment): 86.7% | microbiological cure rate (Streptococcus uberis [7]; 50 mg per quarter, Day 21 after second treatment): 92.31% | local clinical cure rate (Streptococcus uberis [7]; [8]): 86.7% | microbiological cure rate (Streptococcus uberis [7]; [8]): 71.4% | microbiological cure rate (Streptococcus uberis [7]; 150 mg per quarter, Day 21 after second treatment): 85.71%
